# Experimental data as given in PubChem BioAssay AID2060892 (Molecular Pharmacology Branch, DTP, NCI, 2025).
# Tested on: HOP-62 complex spheroids with HUVEC/MSC, viability
# Experiment: Anticancer human tumor HOP-62 cell line growth inhibition [RAS];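 note: spheroids exposed to agents for seven days before readout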;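 for viability, T/C: 100% = DMSO vehicle control viability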
# Conditions: for IC50: curve of first compound; for viability, T/C: stronger effect = lower value
# Summary of the method: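 Agents were tested in combination matrices in half-log decrements from a top concentration at or near clinical Cmax (10 microM if undetermined). Targets were multi-cell spheroids of tumour lines plus HUVEC and MSC stromal cells.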
structure (smiles),measurement,setting,value
CCN1CCN(Cc2ccc(Nc3ncc(F)c(-c4cc(F)c5nc(C)n(C(C)C)c5c4)n3)nc2)CC1 + CCn1c(-c2cccnc2C(C)OC)c2c3cc(ccc31)N1CCOC(CC(NC(=O)C(C(C)C)N(C)C(=O)C3(F)CCN(C(=O)C#CC(C)(C)N(C)C)CC3)C(=O)N3CCCC(N3)C(=O)OCC(C)(C)C2)C1,IC50,second compound 0.000949 µM,> 1000 nM
same,IC50,second compound 0.003 µM,> 1000 nM
same,IC50,second compound 0.00949 µM,> 1000 nM
same,IC50,second compound 0.03 µM,> 1000 nM
same,IC50,second compound 0.0949 µM,> 1000 nM
same,IC50,second compound 0.3 µM,> 1000 nM
same,"viability, T/C","second compound 0.000949 µM, first compound 0.00316 µM",106%
same,"viability, T/C","second compound 0.000949 µM, first compound 0.01 µM",116%
same,"viability, T/C","second compound 0.000949 µM, first compound 0.0316 µM",86.5%
same,"viability, T/C","second compound 0.000949 µM, first compound 0.1 µM",108%
same,"viability, T/C","second compound 0.000949 µM, first compound 0.316 µM",107%
same,"viability, T/C","second compound 0.000949 µM, first compound 1 µM",92.3%
same,"viability, T/C","second compound 0.003 µM, first compound 0.00316 µM",102%
same,"viability, T/C","second compound 0.003 µM, first compound 0.01 µM",99.7%
same,"viability, T/C","second compound 0.003 µM, first compound 0.0316 µM",68.9%
same,"viability, T/C","second compound 0.003 µM, first compound 0.1 µM",97%
same,"viability, T/C","second compound 0.003 µM, first compound 0.316 µM",97.5%
same,"viability, T/C","second compound 0.003 µM, first compound 1 µM",76.8%
same,"viability, T/C","second compound 0.00949 µM, first compound 0.00316 µM",100%
same,"viability, T/C","second compound 0.00949 µM, first compound 0.01 µM",81.7%
same,"viability, T/C","second compound 0.00949 µM, first compound 0.0316 µM",84.2%
same,"viability, T/C","second compound 0.00949 µM, first compound 0.1 µM",87.9%
same,"viability, T/C","second compound 0.00949 µM, first compound 0.316 µM",88.6%
same,"viability, T/C","second compound 0.00949 µM, first compound 1 µM",79.2%
same,"viability, T/C","second compound 0.03 µM, first compound 0.00316 µM",96.6%
same,"viability, T/C","second compound 0.03 µM, first compound 0.01 µM",86.7%
same,"viability, T/C","second compound 0.03 µM, first compound 0.0316 µM",82.8%
same,"viability, T/C","second compound 0.03 µM, first compound 0.1 µM",85.3%
same,"viability, T/C","second compound 0.03 µM, first compound 0.316 µM",78.6%
same,"viability, T/C","second compound 0.03 µM, first compound 1 µM",89.5%
same,"viability, T/C","second compound 0.0949 µM, first compound 0.00316 µM",87.8%
same,"viability, T/C","second compound 0.0949 µM, first compound 0.01 µM",97.7%
same,"viability, T/C","second compound 0.0949 µM, first compound 0.0316 µM",79.7%
same,"viability, T/C","second compound 0.0949 µM, first compound 0.1 µM",74.4%
same,"viability, T/C","second compound 0.0949 µM, first compound 0.316 µM",68.3%
same,"viability, T/C","second compound 0.0949 µM, first compound 1 µM",97.4%
same,"viability, T/C","second compound 0.3 µM, first compound 0.00316 µM",90.2%
same,"viability, T/C","second compound 0.3 µM, first compound 0.01 µM",78.9%
same,"viability, T/C","second compound 0.3 µM, first compound 0.0316 µM",79.7%
same,"viability, T/C","second compound 0.3 µM, first compound 0.1 µM",70.2%
same,"viability, T/C","second compound 0.3 µM, first compound 0.316 µM",74.3%
same,"viability, T/C","second compound 0.3 µM, first compound 1 µM",91.4%
CCc1c2c(nc3ccc(O)cc13)-c1cc3c(c(=O)n1C2)COC(=O)[C@]3(O)CC + C=CC(=O)N1CCN(c2nc(OCC3CCCN3C)nc3c(F)c(-c4nc(N)cc(C)c4C(F)(F)F)c(Cl)cc23)C(C)C1,IC50,second compound 0.00316 µM,< 0.949 nM
same,IC50,second compound 0.01 µM,< 0.949 nM
same,IC50,second compound 0.0316 µM,< 0.949 nM
same,IC50,second compound 0.1 µM,< 0.949 nM
same,IC50,second compound 0.316 µM,< 0.949 nM
same,IC50,second compound 1 µM,< 0.949 nM
same,"viability, T/C","second compound 0.00316 µM, first compound 0.000949 µM",46.5%
same,"viability, T/C","second compound 0.00316 µM, first compound 0.003 µM",11.8%
same,"viability, T/C","second compound 0.00316 µM, first compound 0.00949 µM",6.88%
same,"viability, T/C","second compound 0.00316 µM, first compound 0.03 µM",3.96%
same,"viability, T/C","second compound 0.00316 µM, first compound 0.0949 µM",2.91%
same,"viability, T/C","second compound 0.00316 µM, first compound 0.3 µM",4.33%
same,"viability, T/C","second compound 0.01 µM, first compound 0.000949 µM",47.3%
same,"viability, T/C","second compound 0.01 µM, first compound 0.003 µM",11.6%
same,"viability, T/C","second compound 0.01 µM, first compound 0.00949 µM",6.73%
same,"viability, T/C","second compound 0.01 µM, first compound 0.03 µM",4.31%
same,"viability, T/C","second compound 0.01 µM, first compound 0.0949 µM",3.65%
same,"viability, T/C","second compound 0.01 µM, first compound 0.3 µM",2.46%
same,"viability, T/C","second compound 0.0316 µM, first compound 0.000949 µM",42.5%
same,"viability, T/C","second compound 0.0316 µM, first compound 0.003 µM",9.52%
same,"viability, T/C","second compound 0.0316 µM, first compound 0.00949 µM",5.4%
same,"viability, T/C","second compound 0.0316 µM, first compound 0.03 µM",3.77%
same,"viability, T/C","second compound 0.0316 µM, first compound 0.0949 µM",2.66%
same,"viability, T/C","second compound 0.0316 µM, first compound 0.3 µM",2.57%
same,"viability, T/C","second compound 0.1 µM, first compound 0.000949 µM",47.7%
same,"viability, T/C","second compound 0.1 µM, first compound 0.003 µM",10.1%
same,"viability, T/C","second compound 0.1 µM, first compound 0.00949 µM",6.42%
same,"viability, T/C","second compound 0.1 µM, first compound 0.03 µM",3.2%
same,"viability, T/C","second compound 0.1 µM, first compound 0.0949 µM",3.67%
same,"viability, T/C","second compound 0.1 µM, first compound 0.3 µM",2.48%
same,"viability, T/C","second compound 0.316 µM, first compound 0.000949 µM",40.5%
same,"viability, T/C","second compound 0.316 µM, first compound 0.003 µM",10.3%
same,"viability, T/C","second compound 0.316 µM, first compound 0.00949 µM",8.01%
same,"viability, T/C","second compound 0.316 µM, first compound 0.03 µM",5.51%
same,"viability, T/C","second compound 0.316 µM, first compound 0.0949 µM",4.05%
same,"viability, T/C","second compound 0.316 µM, first compound 0.3 µM",2.72%
same,"viability, T/C","second compound 1 µM, first compound 0.000949 µM",43.2%
same,"viability, T/C","second compound 1 µM, first compound 0.003 µM",12.4%
same,"viability, T/C","second compound 1 µM, first compound 0.00949 µM",6.37%
same,"viability, T/C","second compound 1 µM, first compound 0.03 µM",4.48%
same,"viability, T/C","second compound 1 µM, first compound 0.0949 µM",2.92%
same,"viability, T/C","second compound 1 µM, first compound 0.3 µM",2.71%
O=C(c1ccc(F)c(F)c1Nc1ccc(I)cc1F)N1CC(O)([C@@H]2CCCCN2)C1 + C=CC(=O)N1CCN(c2nc(OCC3CCCN3C)nc3c(F)c(-c4nc(N)cc(C)c4C(F)(F)F)c(Cl)cc23)C(C)C1,IC50,second compound 0.00316 µM,46.5 nM
same,IC50,second compound 0.01 µM,38.3 nM
same,IC50,second compound 0.0316 µM,20 nM
same,IC50,second compound 0.1 µM,22.7 nM
same,IC50,second compound 0.316 µM,14 nM
same,IC50,second compound 1 µM,17.6 nM
same,"viability, T/C","second compound 0.00316 µM, first compound 0.00316 µM",77.1%
same,"viability, T/C","second compound 0.00316 µM, first compound 0.01 µM",77.8%
same,"viability, T/C","second compound 0.00316 µM, first compound 0.0316 µM",55.2%
same,"viability, T/C","second compound 0.00316 µM, first compound 0.1 µM",36.5%
same,"viability, T/C","second compound 0.00316 µM, first compound 0.316 µM",20%
same,"viability, T/C","second compound 0.00316 µM, first compound 1 µM",19.2%
same,"viability, T/C","second compound 0.01 µM, first compound 0.00316 µM",68.2%
same,"viability, T/C","second compound 0.01 µM, first compound 0.01 µM",65.5%
same,"viability, T/C","second compound 0.01 µM, first compound 0.0316 µM",52.2%
same,"viability, T/C","second compound 0.01 µM, first compound 0.1 µM",35.1%
same,"viability, T/C","second compound 0.01 µM, first compound 0.316 µM",18.8%
same,"viability, T/C","second compound 0.01 µM, first compound 1 µM",15%
same,"viability, T/C","second compound 0.0316 µM, first compound 0.00316 µM",68.1%
same,"viability, T/C","second compound 0.0316 µM, first compound 0.01 µM",60.1%
same,"viability, T/C","second compound 0.0316 µM, first compound 0.0316 µM",42.2%
same,"viability, T/C","second compound 0.0316 µM, first compound 0.1 µM",30.6%
same,"viability, T/C","second compound 0.0316 µM, first compound 0.316 µM",15.1%
same,"viability, T/C","second compound 0.0316 µM, first compound 1 µM",13.3%
same,"viability, T/C","second compound 0.1 µM, first compound 0.00316 µM",64.8%
same,"viability, T/C","second compound 0.1 µM, first compound 0.01 µM",54.5%
same,"viability, T/C","second compound 0.1 µM, first compound 0.0316 µM",49.3%
same,"viability, T/C","second compound 0.1 µM, first compound 0.1 µM",27.8%
same,"viability, T/C","second compound 0.1 µM, first compound 0.316 µM",15.7%
same,"viability, T/C","second compound 0.1 µM, first compound 1 µM",10.7%
same,"viability, T/C","second compound 0.316 µM, first compound 0.00316 µM",57%
same,"viability, T/C","second compound 0.316 µM, first compound 0.01 µM",57.2%
same,"viability, T/C","second compound 0.316 µM, first compound 0.0316 µM",38.7%
same,"viability, T/C","second compound 0.316 µM, first compound 0.1 µM",28%
same,"viability, T/C","second compound 0.316 µM, first compound 0.316 µM",16.6%
same,"viability, T/C","second compound 0.316 µM, first compound 1 µM",10.5%
same,"viability, T/C","second compound 1 µM, first compound 0.00316 µM",63.6%
same,"viability, T/C","second compound 1 µM, first compound 0.01 µM",59.4%
same,"viability, T/C","second compound 1 µM, first compound 0.0316 µM",40.6%
same,"viability, T/C","second compound 1 µM, first compound 0.1 µM",24.3%
same,"viability, T/C","second compound 1 µM, first compound 0.316 µM",13.1%
same,"viability, T/C","second compound 1 µM, first compound 1 µM",9.01%
